# PubChem BioAssay (NCI)
# Where “and” joins values, the source holds several entries; their conditions need not be identical. Equal values may be shown once.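 Five compound concentrations were applied to cells in 96-well plates for 48 hours; endpoints were derived by simple linear interpolation of the resulting dose-response curve. At the GI50, growth is halved. TGI is the concentration that stops growth completely.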
# Experiments:
# Assay in all cases: NCI tumour cell line growth inhibition, 48 h
# [1] = system: 786-0 renal
# [2] = system: A498 renal
# [3] = system: A549 NSCLC
# [4] = system: CAKI-1 renal
# [5] = system: CCRF-CEM leukemia
# [6] = system: COLO 205 colon
# [7] = system: DLD-1 colon
# [8] = system: DMS 114 small cell lung
# [9] = system: DMS 273 small cell lung
# [10] = system: EKVX NSCLC
# [11] = system: HCC-2998 colon
# [12] = system: HCT-116 colon
# [13] = system: HCT-15 colon
# [14] = system: HL-60(TB) leukemia
# [15] = system: HOP-18 NSCLC
# [16] = system: HOP-62 NSCLC
# [17] = system: HOP-92 NSCLC
# [18] = system: HT29 colon
# [19] = system: IGROV1 ovarian
# [20] = system: K-562 leukemia
# [21] = system: KM12 colon
# [22] = system: KM20L2 colon
# [23] = system: LOX IMVI melanoma
# [24] = system: LXFL 529 NSCLC
# [25] = system: M14 melanoma
# [26] = system: M19-MEL melanoma
# [27] = system: MALME-3M melanoma
# [28] = system: MOLT-4 leukemia
# [29] = system: NCI-H226 lung
# [30] = system: NCI-H23 lung
# [31] = system: NCI-H460 lung
# [32] = system: NCI-H522 lung
# [33] = system: OVCAR-3 ovarian
# [34] = system: OVCAR-4 ovarian
# [35] = system: OVCAR-5 ovarian
# [36] = system: OVCAR-8 ovarian
# [37] = system: RPMI-8226 leukemia
# [38] = system: RXF 393 renal
# [39] = system: RXF-631 renal
# [40] = system: SF-268 CNS
# [41] = system: SF-295 CNS
# [42] = system: SF-539 CNS
# [43] = system: SK-MEL-2 melanoma
# [44] = system: SK-MEL-5 melanoma
# [45] = system: SK-OV-3 ovarian
# [46] = system: SN12C renal
# [47] = system: SNB-19 CNS
# [48] = system: SNB-75 CNS
# [49] = system: SNB-78 CNS
# [50] = system: SR leukemia
# [51] = system: SW-620 colon
# [52] = system: TK-10 renal
# [53] = system: U251 CNS
# [54] = system: UACC-257 melanoma
# [55] = system: UACC-62 melanoma
# [56] = system: UO-31 renal
# [57] = system: XF 498 CNS
# [58] = system: ACHN renal
# [59] = system: SK-MEL-28 melanoma
# [60] = system: BT-549 breast
# [61] = system: P388 leukemia
# [62] = system: P388/ADR leukemia
# [63] = system: SN12K1 renal
structure (smiles),measurement,setting,value
O=C1C=C(O)C(=Cc2c(O)cc(O)cc2O)C(O)=C1,TGI,[1],> 100 µM
same,TGI,[2],> 100 µM
same,TGI,[3],> 100 µM
same,TGI,[4],> 100 µM
same,TGI,[5],> 100 µM
same,TGI,[6],> 100 µM
same,TGI,[7],> 100 µM
same,TGI,[8],> 100 µM
same,TGI,[9],> 100 µM
same,TGI,[10],> 100 µM
same,TGI,[11],> 100 µM
same,TGI,[12],> 100 µM
same,TGI,[13],> 100 µM
same,TGI,[14],> 100 µM
same,TGI,[15],> 100 µM
same,TGI,[16],> 100 µM
same,TGI,[17],> 100 µM
same,TGI,[18],> 100 µM
same,TGI,[19],> 100 µM
same,TGI,[20],> 100 µM
same,TGI,[21],> 100 µM
same,TGI,[22],> 100 µM
same,TGI,[23],> 100 µM
same,TGI,[24],> 100 µM
same,TGI,[25],> 100 µM
same,TGI,[26],> 100 µM
same,TGI,[27],> 100 µM
same,TGI,[28],> 100 µM
same,TGI,[29],> 100 µM
same,TGI,[30],> 100 µM
same,TGI,[31],> 100 µM
same,TGI,[32],> 100 µM
same,TGI,[33],> 100 µM
same,TGI,[34],> 100 µM
same,TGI,[35],> 100 µM
same,TGI,[36],> 100 µM
same,TGI,[37],> 100 µM
same,TGI,[38],> 100 µM
same,TGI,[39],> 100 µM
same,TGI,[40],> 100 µM
same,TGI,[41],> 100 µM
same,TGI,[42],> 100 µM
same,TGI,[43],> 100 µM
same,TGI,[44],> 100 µM
same,TGI,[45],> 100 µM
same,TGI,[46],> 100 µM
same,TGI,[47],> 100 µM
same,TGI,[48],> 100 µM
same,TGI,[49],> 100 µM
same,TGI,[50],> 100 µM
same,TGI,[51],> 100 µM
same,TGI,[52],> 100 µM
same,TGI,[53],> 100 µM
same,TGI,[54],> 100 µM
same,TGI,[55],> 100 µM
same,TGI,[56],> 100 µM
same,TGI,[57],> 100 µM
O=C1NC2CCCCCC2C12CCCCC2 (stereo unspecified),TGI,[2],> 100 µM
same,TGI,[3],> 100 µM
same,TGI,[58],> 100 µM
same,TGI,[5],> 100 µM
same,TGI,[7],> 100 µM
same,TGI,[8],> 100 µM
same,TGI,[10],> 100 µM
same,TGI,[11],> 100 µM
same,TGI,[12],> 100 µM
same,TGI,[13],> 100 µM
same,TGI,[14],> 100 µM
same,TGI,[16],> 100 µM
same,TGI,[18],> 100 µM
same,TGI,[19],> 100 µM
same,TGI,[20],> 100 µM
same,TGI,[21],> 100 µM
same,TGI,[22],> 100 µM
same,TGI,[23],> 100 µM
same,TGI,[24],> 100 µM
same,TGI,[25],> 100 µM
same,TGI,[26],> 100 µM
same,TGI,[27],> 100 µM
same,TGI,[28],> 100 µM
same,TGI,[29],> 100 µM
same,TGI,[30],> 100 µM
same,TGI,[31],> 100 µM
same,TGI,[33],> 100 µM
same,TGI,[34],> 100 µM
same,TGI,[35],> 100 µM
same,TGI,[38],> 100 µM
same,TGI,[39],> 100 µM
same,TGI,[40],> 100 µM
same,TGI,[41],> 100 µM
same,TGI,[42],> 100 µM
same,TGI,[59],> 100 µM
same,TGI,[45],> 100 µM
same,TGI,[46],> 100 µM
same,TGI,[47],> 100 µM
same,TGI,[48],> 100 µM
same,TGI,[49],> 100 µM
same,TGI,[50],> 100 µM
same,TGI,[51],> 100 µM
same,TGI,[52],> 100 µM
same,TGI,[53],> 100 µM
same,TGI,[54],> 100 µM
same,TGI,[55],> 100 µM
same,TGI,[56],> 100 µM
same,TGI,[57],> 100 µM
COc1ccc(CC2C(=O)NC(C)C(=O)N(C)C3C(=O)N(C)C(Cc4ccc(O)c(c4)Oc4ccc(cc4)C3O)C(=O)NC(C)C(=O)NC(C)C(=O)N2C)cc1 (stereo unspecified),TGI,[60],0.01 µM
same,GI50,[7],0.0409 µM
same,TGI,[7],3.45 µM and 0.581 µM
same,GI50,[8],0.0128 µM
same,TGI,[8],0.0206 µM and 0.0428 µM
same,GI50,[9],0.0215 µM
same,TGI,[9],0.117 µM and 0.0522 µM
same,GI50,[15],0.0184 µM
same,TGI,[15],0.0435 µM and 0.0401 µM
same,GI50,[17],0.00303 µM
same,TGI,[17],0.0283 µM and 0.0918 µM and 0.0269 µM
same,TGI,[22],0.35 µM and 0.471 µM
same,GI50,[26],0.00708 µM
same,TGI,[26],0.13 µM and 0.0543 µM
same,GI50,[29],0.0125 µM
same,TGI,[29],0.0238 µM and 0.0257 µM
same,GI50,[30],0.00711 µM
same,TGI,[30],0.0557 µM and 0.0341 µM
same,GI50,[61],0.0149 µM
same,TGI,[61],0.0792 µM and 0.175 µM
same,TGI,[62],8.52 µM and 12.7 µM
same,GI50,[63],0.0135 µM
same,TGI,[63],0.0321 µM and 0.0342 µM
same,GI50,[49],0.0125 µM
same,TGI,[49],0.0411 µM and 0.0264 µM
same,GI50,[54],0.016 µM
same,TGI,[54],0.0663 µM and 0.032 µM
same,GI50,[57],0.00238 µM
same,TGI,[57],0.0179 µM and 0.0313 µM
COC(=O)C(C(=O)C(=O)Nc1ccc([N+](=O)[O-])cc1)c1nc2ccc([N+](=O)[O-])cc2[nH]c1=O (stereo unspecified),TGI,[1],> 100 µM
same,TGI,[2],> 100 µM
same,TGI,[3],> 100 µM
same,TGI,[58],> 100 µM
same,TGI,[4],> 100 µM
same,TGI,[5],> 100 µM
same,TGI,[6],> 100 µM
same,TGI,[7],> 100 µM
same,TGI,[8],> 100 µM
same,TGI,[9],> 100 µM
same,TGI,[10],> 100 µM
same,TGI,[11],> 100 µM
same,TGI,[12],> 100 µM
same,TGI,[13],> 100 µM
same,TGI,[14],> 100 µM
same,TGI,[15],> 100 µM
same,TGI,[16],> 100 µM
same,TGI,[17],> 100 µM
same,TGI,[18],> 100 µM
same,TGI,[19],> 100 µM
same,TGI,[20],> 100 µM
same,TGI,[21],> 100 µM
same,TGI,[22],> 100 µM
same,TGI,[23],> 100 µM
same,TGI,[24],> 100 µM
same,TGI,[25],> 100 µM
same,TGI,[26],> 100 µM
same,TGI,[27],> 100 µM
same,TGI,[28],> 100 µM
same,TGI,[29],> 100 µM
same,TGI,[30],> 100 µM
same,TGI,[31],> 100 µM
same,TGI,[32],> 100 µM
same,TGI,[33],> 100 µM
same,TGI,[34],> 100 µM
same,TGI,[35],> 100 µM
same,TGI,[36],> 100 µM
same,TGI,[38],> 100 µM
same,TGI,[39],> 100 µM
same,TGI,[40],> 100 µM
same,TGI,[41],> 100 µM
same,TGI,[42],> 100 µM
same,TGI,[43],> 100 µM
same,TGI,[59],> 100 µM
same,TGI,[44],> 100 µM
same,TGI,[45],> 100 µM
same,TGI,[46],> 100 µM
same,TGI,[47],> 100 µM
same,TGI,[48],> 100 µM
same,TGI,[49],> 100 µM
same,TGI,[50],> 100 µM
same,TGI,[51],> 100 µM
same,TGI,[52],> 100 µM
same,TGI,[53],> 100 µM
same,TGI,[54],> 100 µM
same,TGI,[55],> 100 µM
same,TGI,[56],> 100 µM
